Assay results published in the NIST ThermoML archive (doi:10.1016/j.jct.2018.06.022).

Conditions: Liquid, Closed cell (Static) method

O=C=O [carbon dioxide]
Conditions | vapor or sublimation pressure [kPa]
218.15 K | 552.5
233.15 K | 1004.4
243.15 K | 1428
258.15 K | 2293.7
273.15 K | 3484.6
288.19 K | 5089.6
302.94 K | 7171.2
